Measurements from PubChem BioAssay AID179 (DTP/NCI, 2004).
“And” between values parts separate entries of the source, which are not always exact repeats. Equal values may be shown once. The source made the active and inactive calls.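 How the source made its calls: active means compounds giving half or more protection of infected cells from virus-caused growth loss, again on retest; inactive means the rest.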

Tested on: CEM cells HIV-1 protection, formazan growth assay
Assay: NCI AIDS Antiviral Assay
Conditions: for IC50: measured here: growth of uninfected CEM cells
In short: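 Protection of CEM cells against HIV-1 was scored from cell growth (soluble formazan) across five concentrations, with parallel uninfected cells. Lack of protection may reflect toxicity.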

| SMILES | EC50 | IC50 | outcome |
| --- | --- | --- | --- |
| Nc1ccc(S(=O)(=O)S(=O)(=O)c2ccc(N)cc2)cc1 | > 200 µM | 112 µM | – |
| CCc1cc2c(O)c(c1)Cc1cc(CC)cc(c1O)Cc1cc(CC)cc(c1O)Cc1cc(CC)cc(c1O)Cc1cc(CC)cc(c1O)Cc1cc(CC)cc(c1O)Cc1cc(CC)cc(c1O)C2 | > 10 µM | > 10 µM | – |
| O=[N+]([O-])c1ccc(-c2ccc(-c3csc(Nc4ccccn4)n3)o2)cc1 | > 5.5 µM | > 5.5 µM | – |
| CCOP(=O)(OCC)OC1c2[nH]cc(C(=O)OCc3ccccc3)c2-c2cc(C(=O)OC)[nH]c2C1OC (stereo not given) | > 200 µM | 16.6 µM | – |
| COc1ccc2c(c1)CCC(c1ccccc1)=C2c1ccc(OCCN2CCCC2)cc1 | > 200 µM | 3.72 µM | – |
| C/C(=N/NC(=S)Nc1cccc(Cl)c1)c1cccc(/C(C)=N\NC(=S)Nc2cccc(Cl)c2)n1 | > 200 µM | 5.25 µM | – |
| C=C1C(=O)O[C@H]2C1C[C@@H](O)[C@@]1(C)OC1CC[C@@]1(C)O[C@H]21 (stereo not given in full) | > 200 µM | 4.47 µM | – |
| COc1ccc(/C=C2\CNC/C(=C\c3ccc(OC)cc3)C2=O)cc1 | > 7.41 µM | > 7.41 µM | – |
| COc1cc2c(cc1OC)C(CN)C2 (stereo not given) | > 1070 µM | 30.9 µM and 20 µM | – |
| CC(C)C(/C=C/c1ccc(Cl)cc1)=N\NC(=O)N/N=C(/C=C/c1ccc(Cl)cc1)C(C)C | > 100 µM | > 100 µM | – |
| COc1cc(COC(=O)N2CSCC2C(=O)O)c([N+](=O)[O-])cc1OC (stereo not given) | > 676 µM | > 676 µM | – |
| CCC(F)(C(N)=O)C(=O)O (stereo not given) | > 200 µM | > 200 µM | – |
| C[N+]12CCCCC1C(CN1C(=O)Cc3c4ccccc4c(c4ccccc34)CC1=O)CCC2 (stereo not given) | > 200 µM | > 200 µM | – |
| COC(=O)c1sc2c(SC#N)c3ccccn3c2c1C | – | – | inactive |
| CCN(CC)CCNC(=O)c1ccc(I)cc1 | > 200 µM | > 200 µM | – |
| CCOC(=O)Nn1c(CC#N)nnc1Cc1ccccc1 | > 200 µM | > 200 µM | – |
| C/C(=N\NS(=O)(=O)c1ccccc1)c1ccc[n+]([O-])n1 | – | – | inactive |
| CC1(C)OC(=O)C(=Cc2ccc(F)cc2)C(=O)O1 | > 525 µM | 170 µM | – |
| COc1ccc2[nH]c3c(=O)[nH]ncc3c2c1 | – | – | inactive |
| C1=C\SS/C=C\SS/C=C\SS/C=C\SS/1 | 12.9 µM | 15.1 µM | – |
| CCN(CC)CCOC(=O)c1cc2ccccc2n1Cc1ccccc1 | > 100 µM | > 100 µM | – |

| SMILES | EC50 | IC50 | outcome |
| --- | --- | --- | --- |
| C=CCC(C(=O)OCC)C1NCCc2c1[nH]c1ccccc21 (stereo not given) | > 45.7 µM | > 45.7 µM | – |
| COc1ccc2c(O)c(Oc3ccccc3)c(=O)oc2c1 | > 200 µM | 145 µM | – |
| Cc1nc2nc3n(c(=O)c2nc1C)CCS3 | – | – | inactive |
| CC1=C(C(=O)NCc2ccccc2)C(/C=C/c2ccccc2)C(C(=O)NCc2ccccc2)=C(C)N1 | – | – | inactive |
| CO/C(N)=C(\C#N)N=Cc1cccnc1 | > 200 µM | > 200 µM | – |
| O=C1c2cccc3cccc(c23)C(=O)N1NCCO | > 200 µM | 162 µM | – |
| COc1ccc(C2=Nn3c(nc4sc5c(c4c3=O)CCCC5)SC2)cc1 | > 200 µM | > 200 µM | – |
| Cc1ccc(S(=O)(=O)OI(C#CC(C)(C)C)c2ccccc2)cc1 | > 200 µM | 1.05 µM | – |
| CC1=CC(=O)c2ccc3c4ccccc4n(C)c3c2C1=O | > 26.3 µM | > 26.3 µM | – |
| COc1cc(O)c2c(=O)c3c(C)cccc3n(C)c2c1 | > 200 µM | 72.4 µM | – |
| O=C(N/C(=C\c1cc(Cl)ccc1Cl)c1nc2ccccc2[nH]1)c1ccccc1 | – | – | inactive |
| O=C(Cn1cc(Br)c(=O)[nH]c1=O)c1ccc(-c2ccccc2)cc1 | > 200 µM | > 200 µM | – |
| OC12C3C4CC5C(C4[C@@H]1Br)C2[C@@](O)(c1c(F)c(F)c(F)c(F)c1F)C53 (stereo not given in full) | > 200 µM | 69.2 µM | – |
| CCOC(=O)c1cc2c([nH]1)c(O)cc1c2ccn1Cc1ccccc1 | > 200 µM | 29.5 µM | – |
| CC(=O)OC1c2ccccc2C2c3ccccc3C1C2(C)C(Cl)(Cl)Cl (stereo not given) | > 13.2 µM | > 13.2 µM | – |
| CC(C)OP(=O)(CP(=O)(OC(C)C)OC(C)C)CP(=O)(OC(C)C)OC(C)C | > 537 µM | 93.3 µM | – |
| CCOC(=O)Nc1cc2c(c(N)n1)N=C(c1ccc(OC)cc1)CN2 | > 11 µM | 0.224 µM | – |
| O=C1NC2(CCCC2)C(=O)C12CCCC2 | – | – | inactive |
| O=C1c2ccccc2C(=O)c2sc(Nc3ccccc3C(F)(F)F)nc21 | > 200 µM | 11 µM | – |
| CCO/C=N/C1=C(C#N)SC2=N/C(=C\c3ccccc3)C(=O)N21 | > 200 µM | 77.6 µM | – |
| CCN(CC)CCOC(=O)C(Cc1cccc2ccccc12)CC1CCCO1 (stereo not given) | > 200 µM | > 100 µM | – |

| SMILES | EC50 | IC50 | outcome |
| --- | --- | --- | --- |
| CCC1C/C(=N\N=C2CC(C)(C)NC(C)(C)C2)CC(C)(C)N1 (stereo not given) | > 200 µM | > 200 µM | – |
| CC(C)CNC12CN3CN(CN(C3)C1)C2 | > 1200 µM | > 1200 µM | – |
| NC(CCCCNCc1ccccc1O)C(=O)O (stereo not given) | > 178 µM | > 178 µM | – |
| O=C(OC/C=C1C=C(OC(=O)c2ccccc2)/C(=N/N(C(=O)c2ccccc2)c2ccccc2)O\1)c1ccccc1 | > 200 µM | 11 µM | – |
| CCCCNC(=O)C1=C(C)NC(C)=C(C(=O)NCCCC)C1 | > 200 µM | > 200 µM | – |
| COc1cc(/C=C2\CCC(C)C3C2=NN(C(C)=O)C3c2cc(OC)c(OC)c(OC)c2)cc(OC)c1OC (stereo not given) | > 100 µM | > 100 µM | – |
| Cn1c(N)cc[n+](C2CCC(CO)O2)c1=O (stereo not given) (tested in a mixture with another compound) | 9.12 µM | 708 µM | – |
| O=C(NC(Cc1c[nH]c2ccccc12)C(=O)O)/C(=C/c1ccccc1)NC(=O)c1ccccc1 (stereo not given) | > 200 µM | 135 µM | – |
| CCCCn1c(=O)[nH]c2c(N)ncnc21 | > 200 µM | > 200 µM | – |
| CCN(CC)CCCC(C)Nc1cc(-c2ccccc2)nc2ccc(OC)cc12 (stereo not given) | > 363 µM | 2 µM | – |
| COc1cc(C(=O)Nc2c3ccccc3nc3ccccc23)cc(OC)c1OC | > 200 µM | > 200 µM | – |
| COC(=O)/C=C(\C(=O)OC)c1c(C)c(C)c2c(C)cc(C)cc(C)c1-2 | > 200 µM | 16.6 µM | – |
| C/C=C/C=C/c1cc2cc3c(c(O)c2c(=O)[nH]1)C1(CC3)C(O)=c2c(=O)c3c(=O)cc(OC)c(=O)c=3c(=O)c2=C1O (stereo not given) | > 200 µM | 5.89 µM | – |
| CC(=O)C1CC[C@@H]2[C@H](CC[C@]3(C)[C@@H](O)CC[C@@H]23)[C@H]1C(=O)O (stereo not given in full) | > 200 µM | > 200 µM | – |
| O=C1CSC(c2c[nH]c3ccccc23)N1c1cccc([N+](=O)[O-])c1 (stereo not given) | > 200 µM | 21.9 µM | – |
| CC(C)c1cc(C(=O)[O-])c(O)c(C(C)C)c1.CC(C)c1cc(C(=O)[O-])c(O)c(C(C)C)c1.CC(C)c1cc(C(=O)[O-])c(O)c(C(C)C)c1.CC(C)c1cc(C(=O)[O-])c(O)c(C(C)C)c1.CC(C)c1cc(C(=O)[O-])c(O)c(C(C)C)c1.CC(C)c1cc(C(=O)[O-])c(O)c(C(C)C)c1.[Cu+2].[Mn+2].[Mn+2] | > 21.4 µM | 10.7 µM | – |
| c1cc(SSc2ccncc2)ccn1 | > 200 µM | 25.1 µM | – |
| Cc1cc(=O)oc2c(CNC(C)C(=O)O)c(O)ccc12 (stereo not given) | > 200 µM | 186 µM | – |
| CCOC(=O)c1cccc([N+](=O)[O-])c1N | > 200 µM | > 200 µM | – |
